ChEMBL document CHEMBL5154766, “Synthesis, bioevaluation and molecular dynamics of pyrrolo-pyridine benzamide derivatives as potential antitumor agents in vitro and in vivo” (Eur J Med Chem, 2022)
Calls of active or inactive are those of the source. No cut-off for these calls is given here.

How the values were obtained:
A549 [1] = assay: Antiproliferative activity against human A549 cells expressing c-Met after 48 hrs by MTT assay; format: functional, cell-based; details: A549, 48 h
HeLa = assay: Antiproliferative activity against human HeLa cells expressing c-Met after 48 hrs by MTT assay; format: functional, cell-based
MCF7 = assay: Antiproliferative activity against human MCF7 cells expressing c-Met after 48 hrs by MTT assay; format: functional, cell-based; details: MCF7, 48 h
A549 [2] = assay: Induction of apoptosis in human A549 cells assessed as late apoptotic cells at 5 uM measured after 24 hrs by PI/Annexin V staining based flow cytometry assay (reference value: 4.49%); format: functional
A549 [3] = assay: Induction of apoptosis in human A549 cells assessed as early apoptotic cells at 5 uM measured after 24 hrs by PI/Annexin V staining based flow cytometry assay (reference value: 2.5%); format: functional
A549 [4] = assay: Induction of cell cycle arrest in human A549 cells assessed as accumulation at G0/G1 phase at 5 uM measured by flow cytometry (reference value: 57.68%); format: functional
A549 [5] = assay: Induction of cell cycle arrest in human A549 cells assessed as accumulation at G2/M phase at 5 uM measured by flow cytometry (reference value: 7.98%); format: functional
A549 [6] = assay: Induction of cell cycle arrest in human A549 cells assessed as accumulation at S phase at 5 uM measured by flow cytometry (reference value: 34.34%); format: functional
A549 [7] = assay: Antitumor activity against human A549 cells xenografted in BALB/c nude mouse assessed as tumor growth inhibition at 20 mg/kg, ip administered every two days for 18 days; format: functional; details: A549, 432 h, time 18 day, read-out: TGI
A549 [8] = assay: Antitumor activity against human A549 cells xenografted in BALB/c nude mouse assessed as reduction in Ki67 expression at 20 mg/kg, ip administered every two days for 18 days by immunohistochemistry; format: functional, organism-based; details: time 18.0 day
[9] = Toxicity in BALB/c nude mouse xenografted with human A549 cells assessed as effect on body weight at 20 mg/kg, ip administered every two days for 18 days; format: organism-based; details: in vivo, 432 h, time 18 day
[10] = Toxicity in BALB/c nude mouse xenografted with human A549 cells assessed as effect on kidney at 20 mg/kg, ip administered every two days for 18 days by H and E staining method; format: organism-based; details: in vivo, 432 h, time 18 day
[11] = Toxicity in BALB/c nude mouse xenografted with human A549 cells assessed as effect on heart at 20 mg/kg, ip administered every two days for 18 days by H and E staining method; format: organism-based; details: in vivo, 432 h, time 18 day
[12] = Toxicity in BALB/c nude mouse xenografted with human A549 cells assessed as effect on liver at 20 mg/kg, ip administered every two days for 18 days by H and E staining method; format: organism-based; details: in vivo, 432 h, time 18 day
A549 [13] = assay: Induction of apoptosis in human A549 cells assessed as cytoplasmic shrinkage at 1 to 5 uM measured after 12 hrs by Acridine orange staining method; format: functional, cell-based; details: dose 1-5 µM
A549 [14] = assay: Induction of apoptosis in human A549 cells assessed as membrane swelling at 1 to 5 uM measured after 12 hrs by Acridine orange staining method; format: functional, cell-based; details: dose 1-5 µM
A549 [15] = assay: Induction of apoptosis in human A549 cells assessed as cell fragment formation at 1 to 5 uM measured after 12 hrs by Acridine orange staining method; format: functional, cell-based; details: dose 1-5 µM
A549 [16] = assay: Induction of apoptosis in human A549 cells assessed as apoptotic bodies formation at 1 to 5 uM measured after 12 hrs by Acridine orange staining method; format: functional, cell-based; details: dose 1-5 µM
A549 [17] = assay: Induction of apoptosis in human A549 cells assessed as increase in chromatin contraction at 1 to 5 uM measured after 12 hrs by Acridine orange staining method; format: functional, cell-based; details: dose 1-5 µM
A549 [18] = assay: Induction of apoptosis in human A549 cells assessed as late apoptotic cells at 2.5 uM measured after 24 hrs by PI/Annexin V staining based flow cytometry assay (reference value: 4.49%); format: functional
A549 [19] = assay: Induction of apoptosis in human A549 cells assessed as early apoptotic cells at 2.5 uM measured after 24 hrs by PI/Annexin V staining based flow cytometry assay (reference value: 2.5%); format: functional
A549 [20] = assay: Induction of apoptosis in human A549 cells assessed as late apoptotic cells at 10 uM measured after 24 hrs by PI/Annexin V staining based flow cytometry assay (reference value: 4.49%); format: functional
A549 [21] = assay: Induction of apoptosis in human A549 cells assessed as early apoptotic cells at 10 uM measured after 24 hrs by PI/Annexin V staining based flow cytometry assay (reference value: 2.5%); format: functional
A549 [22] = assay: Induction of cell cycle arrest in human A549 cells assessed as accumulation at G0/G1 phase at 2.5 uM measured by flow cytometry (reference value: 57.68%); format: functional
A549 [23] = assay: Induction of cell cycle arrest in human A549 cells assessed as accumulation at G2/M phase at 2.5 uM measured by flow cytometry (reference value: 7.98%); format: functional
A549 [24] = assay: Induction of cell cycle arrest in human A549 cells assessed as accumulation at S phase at 2.5 uM measured by flow cytometry (reference value: 34.34%); format: functional
A549 [25] = assay: Induction of cell cycle arrest in human A549 cells assessed as accumulation at G0/G1 phase at 10 uM measured by flow cytometry (reference value: 57.68%); format: functional
A549 [26] = assay: Induction of cell cycle arrest in human A549 cells assessed as accumulation at G2/M phase at 10 uM measured by flow cytometry (reference value: 7.98%); format: functional
A549 [27] = assay: Induction of cell cycle arrest in human A549 cells assessed as accumulation at S phase at 10 uM measured by flow cytometry (reference value: 34.34%); format: functional
A549 [28] = assay: Downregulation of c-Met expression in human A549 cells at 5 to 10 uM measured by fluorescence quantitative PCR analysis; format: functional, cell-based; details: dose 5-10 µM

## Cn1ccc2c(Oc3ccc(NC(=O)c4cn(-c5ccc(Br)cc5)c5ncccc5c4=O)cc3)ccnc21
A549 [1]
  IC50: 10.8 µM
HeLa
  IC50: 50.2 µM
MCF7
  IC50: 29.1 µM

## Cn1ccc2c(Oc3ccc(NC(=O)c4cn(-c5ccc(Cl)cc5)c5ncccc5c4=O)cc3)ccnc21
A549 [1]
  IC50: 15.3 µM
HeLa
  IC50: 63 µM

## Cn1ccc2c(Oc3ccc(NC(=O)c4cn(-c5ccccc5)c5ncccc5c4=O)cc3)ccnc21
A549 [1]
  IC50: 22.3 µM
HeLa
  IC50: 77 µM
MCF7
  IC50: 13.1 µM

## Cn1ccc2c(Oc3ccc(NC(=O)c4cn(-c5ccccc5)c5ncccc5c4=O)cc3F)ccnc21
A549 [1]
  IC50: 16.9 µM
MCF7
  IC50: 14.8 µM

## O=C(Nc1ccc(Oc2ccnc3[nH]ccc23)cc1)c1cn(-c2ccccc2)c2ncccc2c1=O
A549 [1]
  IC50: 18.2 µM
HeLa
  IC50: 80 µM
MCF7
  IC50: 46.7 µM

## O=C(Nc1ccc(Oc2ccnc3[nH]ccc23)cc1)c1cn(-c2ccc(Br)cc2F)c2ncccc2c1=O
A549 [1]
  IC50: 22.7 µM

## O=C(Nc1ccc(Oc2ccnc3[nH]ccc23)cc1)c1cn(-c2ccc(F)c(Cl)c2)c2ncccc2c1=O
A549 [1]
  IC50: 12.4 µM
HeLa
  IC50: 14.2 µM
MCF7
  IC50: 2.01 µM

## Cn1ccc2c(Oc3ccc(NC(=O)c4cn(-c5ccc(Br)cc5F)c5ncccc5c4=O)cc3F)ccnc21
A549 [1]
  IC50: 29.9 µM
HeLa
  IC50: 61.2 µM

## O=C(Nc1ccc(Oc2ccnc3[nH]ccc23)cc1)c1cn(-c2ccc(Cl)cc2)c2ncccc2c1=O
HeLa
  IC50: 53.3 µM

## O=C(Nc1ccc(Oc2ccnc3[nH]ccc23)c(F)c1)c1cn(-c2ccc(Cl)cc2)c2ncccc2c1=O
A549 [1]
  IC50: 5.29 µM

## Cn1ccc2c(Oc3ccc(NC(=O)c4cn(-c5ccc(Br)cc5)c5ncccc5c4=O)cc3F)ccnc21
A549 [1]
  IC50: 10.2 µM
MCF7
  IC50: 5.49 µM

## COc1ccc(-n2cc(C(=O)Nc3ccc(Oc4ccnc5c4ccn5C)cc3)c(=O)c3cccnc32)cc1
A549 [1]
  IC50: 30.6 µM
MCF7
  IC50: 44.9 µM

## Cn1ccc2c(Oc3ccc(NC(=O)c4cn(-c5ccc(Br)cc5F)c5ncccc5c4=O)cc3)ccnc21
A549 [1]
  IC50: 28.7 µM

## Cn1ccc2c(Oc3ccc(NC(=O)c4cn(-c5ccc(F)cc5)c5ncccc5c4=O)cc3)ccnc21
A549 [1]
  IC50: 16.8 µM
HeLa
  IC50: 76.6 µM

## COc1cc2nccc(Oc3ccc(NC(=O)C4(C(=O)Nc5ccc(F)cc5)CC4)cc3)c2cc1OC [CABOZANTINIB]
A549 [1]
  IC50: 0.33 µM
HeLa
  IC50: 79.1 µM
MCF7
  IC50: 30.9 µM
A549 [2]
  Activity: 6.89%
A549 [3]
  Activity: 2.32%
A549 [4]
  Activity: 69.22%
A549 [5]
  Activity: 15.48%
A549 [6]
  Activity: 15.31%
A549 [7]
  inhibition in vivo at 20 mg/kg: 47.9%
A549 [8]
  Activity: Active
[9]
  Activity: Non-Toxic
[10]
  Activity: Non-Toxic
[11]
  Activity: Non-Toxic
[12]
  Activity: Non-Toxic

## O=C(Nc1ccc(Oc2ccnc3[nH]ccc23)c(F)c1)c1cn(-c2ccc(Br)cc2F)c2ncccc2c1=O
A549 [1]
  IC50: 20.1 µM
MCF7
  IC50: 55.6 µM

## O=C(Nc1ccc(Oc2ccnc3[nH]ccc23)cc1)c1cn(-c2ccc(C(F)(F)F)cc2Cl)c2ncccc2c1=O
HeLa
  IC50: 50.3 µM

## O=C(Nc1ccc(Oc2ccnc3[nH]ccc23)c(F)c1)c1cn(-c2ccc(C(F)(F)F)cc2Cl)c2ncccc2c1=O
A549 [1]
  IC50: 9.15 µM
HeLa
  IC50: 27.8 µM
MCF7
  IC50: 13 µM

## O=C(Nc1ccc(Oc2ccnc3[nH]ccc23)c(F)c1)c1cn(-c2ccc(F)cc2)c2ncccc2c1=O
A549 [1]
  IC50: 6.42 µM
HeLa
  IC50: 14.9 µM
MCF7
  IC50: 7.16 µM

## Cn1ccc2c(Oc3ccc(NC(=O)c4cn(-c5ccc(F)c(Cl)c5)c5ncccc5c4=O)cc3)ccnc21
A549 [1]
  IC50: 15.1 µM
MCF7
  IC50: 48.6 µM

## O=C(Nc1ccc(Oc2ccnc3[nH]ccc23)cc1)c1cn(-c2ccc(F)cc2)c2ncccc2c1=O
A549 [1]
  IC50: 9.62 µM
HeLa
  IC50: 86 µM

## O=C(Nc1ccc(Oc2ccnc3[nH]ccc23)c(F)c1)c1cn(-c2ccccc2)c2ncccc2c1=O
A549 [1]
  IC50: 6.51 µM
HeLa
  IC50: 29.3 µM
MCF7
  IC50: 13 µM

## O=C(Nc1ccc(Oc2ccnc3[nH]ccc23)cc1)c1cn(-c2ccc(Br)cc2)c2ncccc2c1=O
A549 [1]
  IC50: 8.39 µM
HeLa
  IC50: 49.3 µM
MCF7
  IC50: 30.8 µM

## COc1ccc(-n2cc(C(=O)Nc3ccc(Oc4ccnc5[nH]ccc45)cc3)c(=O)c3cccnc32)cc1
A549 [1]
  IC50: 26 µM
HeLa
  IC50: 95.4 µM
MCF7
  IC50: 47.2 µM

## Cn1ccc2c(Oc3ccc(NC(=O)c4cn(-c5ccc(C(F)(F)F)cc5Cl)c5ncccc5c4=O)cc3)ccnc21
HeLa
  IC50: 80.3 µM

## O=C(Nc1ccc(Oc2ccnc3[nH]ccc23)c(F)c1)c1cn(-c2ccc(F)c(Cl)c2)c2ncccc2c1=O
A549 [1]
  IC50: 9.71 µM
HeLa
  IC50: 53.1 µM
MCF7
  IC50: 12 µM

## O=C(Nc1ccc(Oc2ccnc3[nH]ccc23)c(F)c1)c1cn(-c2ccc(Br)cc2)c2ncccc2c1=O
A549 [1]
  IC50: 1.06 µM
HeLa
  IC50: 10.9 µM
MCF7
  IC50: 0.11 µM
A549 [13]
  Activity: Active
A549 [14]
  Activity: Active
A549 [15]
  Activity: Active
A549 [16]
  Activity: Active
A549 [17]
  Activity: Active
A549 [18]
  Activity: 5.58%
A549 [19]
  Activity: 3.33%
A549 [2]
  Activity: 8.13%
A549 [3]
  Activity: 2.2%
A549 [20]
  Activity: 12.69%
A549 [21]
  Activity: 4%
A549 [22]
  Activity: 58.72%
A549 [23]
  Activity: 10.19%
A549 [24]
  Activity: 31.09%
A549 [4]
  Activity: 60.15%
A549 [5]
  Activity: 13.01%
A549 [6]
  Activity: 26.84%
A549 [25]
  Activity: 69.22%
A549 [26]
  Activity: 15.48%
A549 [27]
  Activity: 15.31%
A549 [28]
  Activity: Active
A549 [7]
  inhibition in vivo at 20 mg/kg: 64.5%
A549 [8]
  Activity: Active
[9]
  Activity: Non-Toxic
[10]
  Activity: Non-Toxic
[11]
  Activity: Non-Toxic
[12]
  Activity: Non-Toxic

## COc1ccc(-n2cc(C(=O)Nc3ccc(Oc4ccnc5[nH]ccc45)c(F)c3)c(=O)c3cccnc32)cc1
A549 [1]
  IC50: 7.23 µM
HeLa
  IC50: 19.9 µM
MCF7
  IC50: 1.18 µM
